Results reported in patent US20030113916A1, “Method for producing somatic embryos of scot pine (p sylvestris)” (priority 2000, published 2003).

Test system: embryogenic cell lines F1, F2-1, F2-2, F2-3 (previously cryopreserved)
Assay: Maturation of somatic embryos on media with different ammonium to nitrate molar ratios and carbon sources
Format: cell-based, Pinus sylvestris
Conditions: ABA tested at 20, 35 y 60 μM in previous evaluation
Procedure: For maturation process is highly relevant the interaction between nitrogen and carbon source, and the type of the carbon source. […] High concentration of abscisic acid has to be added when starting maturation in order to acquire best quality embryos and avoiding precocious germination; high average of conifers protocols ABA concentration varying between 16 μM and 24 μM. However for Pinus genera ABA is required between 60 μM and 100 μM. […] In order to produce gymnosperm mature somatic embryos with normal germination, is required such embryos developing on medium supplemented with high concentration of desiccant compound.
Under the evaluation done to produce normal embryos, was utilized between 400 and 600 mg of embryogenic tissue per sample, such amount was dispersed on filter paper as no thin layer, with two washing only with liquid mineral medium and they were exposed only two weeks on medium supplemented with activated charcoal.

For `CC1=CC(=O)CC(C)(C)[C@@]1(O)/C=C/C(C)=C\C(=O)O` [ABA, abscisic acid], the “Effect on maturation of the cell lines” value was “non effect”.
